This note sets out measurements from patent US11999727B2 (Tango Therapeutics, Inc., priority 2020, dated 2024).

Assay [1] deals with T1, PRMT5 (Homo sapiens, UniProt O14744).
T1 construct: purchased Viva (custom protein)
Briefly: PRMT5 biochemical IC50 assay with SAM as cofactor. The conditions noted are these: PRMT5, SAM as cofactor; read-out: SAM IC50.

The target of assay [2] is T1, PRMT5. In words: PRMT5 biochemical IC50 assay with no cofactor. As to conditions: PRMT5, no cofactor. From the text: Table 1 indicates IC50 values (μM) against PRMT5 for exemplary compounds in the presence of SAM as cofactor, with no cofactor, and with MTA as cofactor, respectively (columns 4-6). […] Ki values can be calculated from the IC50 values as described in the Examples section. As detailed in the Examples section, for the assay performed in the presence of SAM, IC50=Ki×1.5 (Ki=IC50/1.5).

Assay [3] deals with T1, PRMT5. Briefly: PRMT5 biochemical IC50 assay with MTA as cofactor. The conditions noted are these: PRMT5, MTA as cofactor; read-out: MTA IC50.
Assay [4] deals with HAP1 MTAP-intact cell line. In words: SDMA in-cell western assay, HAP1 MTAP-intact. The format is cell-based. The conditions noted are these: HAP1 MTAP-intact, read-out: MTAP HAP1 intact IC50. An outline of the steps: (§1)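 IC50 values come from SDMA signal quantified by in-cell western in two HAP1 lines, one with native MTAP levels and one lacking MTAP.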
Assay [5] concerns HAP1 MTAP-deleted cell line. In words: SDMA in-cell western assay, HAP1 MTAP-deleted. The class given is cell-based. As to conditions: for IC50: HAP1 MTAP-deleted. An outline of the steps:
as §1

The subject of assay [6] is HAP1 MTAP-deleted cell line. Briefly: Viability assay, MTAP-deleted cell line. The format is cell-based. The conditions noted are these: read-out: HAP1 MTAP deleted viability. From the text: Table 1 additionally indicates IC50 values in a viability assay for the MTAP-deleted cell line (column 10), indicating the effect of treatment with compound on cell survival.
The mark [7] stands for this setting: Homo sapiens, HAP1, SDMA in-cell western.
Setting [8] is: Homo sapiens, HAP1, SDMA in-cell western, read-out: HAP 1 MTAP deleted IC50.
The mark [9] stands for this setting: IC50 ratio HAP1 MTAP-intact / HAP1 MTAP-deleted, SDMA in-cell western.
The mark [10] stands for this setting: Homo sapiens, HAP1, viability IC50, MTAP-deleted cell line.
Setting [11] is: read-out: No Cofactor/ rel IC50.
[12] abbreviates: Homo sapiens, HAP1, viability assay, MTAP-deleted cell line.
Setting [13] is: Homo sapiens, HAP1, SDMA in-cell western, read-out: HAP1 MTAP deleted IC50.
Where [14] appears, read: IC50 ratio HAP1 MTAP-intact vs HAP1 MTAP-deleted, SDMA in-cell western.

Where two headings read alike, the source gives them in different places.

T1 sequence (O14744 whole entry): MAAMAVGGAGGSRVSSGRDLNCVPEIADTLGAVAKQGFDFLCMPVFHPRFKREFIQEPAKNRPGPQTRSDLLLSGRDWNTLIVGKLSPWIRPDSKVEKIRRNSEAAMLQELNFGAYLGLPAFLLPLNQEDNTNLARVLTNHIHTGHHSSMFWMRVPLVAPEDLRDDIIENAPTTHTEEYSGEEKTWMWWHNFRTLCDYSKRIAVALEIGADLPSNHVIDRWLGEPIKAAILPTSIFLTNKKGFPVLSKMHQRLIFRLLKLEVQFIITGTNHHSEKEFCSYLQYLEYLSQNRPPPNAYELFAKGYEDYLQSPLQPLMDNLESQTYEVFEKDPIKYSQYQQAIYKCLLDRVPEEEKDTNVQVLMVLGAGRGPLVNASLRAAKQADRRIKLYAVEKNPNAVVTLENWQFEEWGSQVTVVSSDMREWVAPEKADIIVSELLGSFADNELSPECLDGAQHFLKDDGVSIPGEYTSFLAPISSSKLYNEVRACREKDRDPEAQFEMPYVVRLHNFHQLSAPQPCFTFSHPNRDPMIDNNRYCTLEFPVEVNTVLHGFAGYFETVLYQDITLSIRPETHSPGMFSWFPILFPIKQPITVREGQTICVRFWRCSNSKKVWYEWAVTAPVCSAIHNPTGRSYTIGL
T1 sequence (Q9BQA1 whole entry partner): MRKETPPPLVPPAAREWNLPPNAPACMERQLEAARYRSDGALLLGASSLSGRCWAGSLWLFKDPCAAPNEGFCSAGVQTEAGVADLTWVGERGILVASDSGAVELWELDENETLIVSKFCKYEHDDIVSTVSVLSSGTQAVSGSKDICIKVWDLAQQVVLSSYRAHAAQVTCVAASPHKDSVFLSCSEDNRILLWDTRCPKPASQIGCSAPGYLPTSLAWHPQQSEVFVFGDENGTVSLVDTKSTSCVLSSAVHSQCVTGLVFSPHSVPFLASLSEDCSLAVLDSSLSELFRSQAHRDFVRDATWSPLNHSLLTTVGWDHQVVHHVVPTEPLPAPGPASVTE

Consider `C[C@@H]1CN(C(=O)C(=O)Nc2cncc(C(N)=O)c2)C[C@H]2CCCC[C@H]21` (racemic) [Compound 542, 5-[[2-[(4S,4aS,8aS)-4-Methyl-3,4,4a,5,6,7,8,8a-octahydro-1H-isoquinolin-2-yl]-2-oxo-acetyl]amino]pyridine-3-carboxamide], for which the IC50 was 50 to 500 nM in assay [1]; greater than 500 nM in assay [2] (read-out: No Cofactor/rel IC50); 50 to 500 nM in assay [3]; greater than 1000 nM in assay [4] (setting [7]); greater than 1000 nM in assay [5] (setting [8]); greater than 10000 nM in assay [6] (setting [10]). The MTAP intact/deleted ratio entry in assay [5] (setting [9]) was “B (an IC50 ratio greater than or equal to 3 fold but lower than 10 fold)”.
As to `[H][C@@]1([C@]2([H])C[C@]3(C[C@H](O)C3)C2)CC[C@@H](C)CN1C(=O)C(=O)Nc1cnc(N)c(C)c1` (single isomer, unassigned) [Compound 769], the IC50 was greater than 500 nM in assay [1]; greater than 500 nM in assay [2] (read-out: No Cofactor/rel IC50); greater than 500 nM in assay [3]; greater than 1000 nM in assay [4] (SDMA in-cell western); greater than 1000 nM in assay [5] (SDMA in-cell western, read-out: HAP1 MTAP deleted IC50); greater than 10000 nM in assay [6] (viability assay, HAP1 MTAP-deleted). Further, the MTAP intact/deleted ratio result in assay [5] (setting [9]) was “C (an IC50 ratio of less than 3 fold)”.
Regarding `Cc1ccc([C@@H]2CC[C@@H](C)CN2C(=O)C(=O)Nc2cncc(C(N)=O)c2)cc1O` (racemic) [Compound 554, 5-[[2-[(2S,5R)-2-(3-hydroxy-4-methyl-phenyl)-5-methyl-1-piperidyl]-2-oxo-acetyl]amino]pyridine-3-carboxamide], the IC50 is 50 to 500 nM in assay [1]; 50 to 500 nM in assay [2] (read-out: No Cofactor/rel IC50); less than 50 nM in assay [3]; greater than 1000 nM in assay [4] (setting [7]); less than 100 nM in assay [5] (setting [8]); 1000 to 10000 nM in assay [6] (setting [10]). The MTAP intact/deleted ratio entry in assay [5] (setting [9]) was “A (an IC50 ratio greater than or equal to 10 fold)”.
Consider `Cc1cc(C)cc([C@@H]2CC[C@@H](C)CN2C(=O)C(=O)Nc2cncc(C(N)=O)c2)c1` (racemic) [Compound 118, rac-5-{2-[(2R,5S)-2-(3,5-dimethylphenyl)-5-methylpiperidin-1-yl]-2-oxoacetamido}pyridine-3-carboxamide], for which the IC50 in assay [1] is 50 to 500 nM; in assay [2] (setting [11]), greater than 500 nM; in assay [3], less than 50 nM; in assay [4] (setting [7]), greater than 1000 nM; in assay [5] (setting [8]), 100 to 1000 nM; in assay [6] (setting [12]), greater than 10000 nM. Moreover, the “MTAP intact/deleted ratio” value in assay [5] (setting [9]) was “A (an IC50 ratio greater than or equal to 10 fold)”.
`CCc1cc(NC(=O)C(=O)N2C[C@@H](C)CC[C@@H]2c2ccc3sc(C45CCC(CC4)N(C)C5)nc3c2)cnc1N` [Compound 1217]: the IC50 in assay [1] is less than 50 nM; in assay [2] (read-out: No Cofactor/rel IC50), less than 50 nM; in assay [3], less than 50 nM; in assay [4] (setting [7]), less than 100 nM; in assay [5] (setting [13]), less than 100 nM; in assay [6] (setting [12]), less than 1000 nM. Besides, in assay [5] (setting [14]), the MTAP intact/deleted ratio entry is recorded as “B (an IC50 ratio greater than or equal to 3 fold but lower than 10 fold)”.
As to `CCc1cc(NC(=O)C(=O)N2C[C@@H](C)CC[C@@H]2c2ccc3sc([C@@H]4CCN(C)C4)nc3c2)cnc1N` (single isomer, unassigned) [Compound 1308], the IC50 is 50 to 500 nM in assay [1]; less than 50 nM in assay [2] (setting [11]); less than 50 nM in assay [3]; less than 100 nM in assay [4] (setting [7]); less than 100 nM in assay [5] (setting [8]); less than 1000 nM in assay [6] (Homo sapiens, HAP1, viability, HAP1 MTAP-deleted cell line). Moreover, the “MTAP intact/deleted ratio” value in assay [5] (setting [9]) is “A (an IC50 ratio greater than or equal to 10 fold)”.
`Cc1cc(NC(=O)C(=O)N2C[C@H](C)C[C@@H](F)[C@H]2c2ccc(F)cc2)cnc1N` (racemic) [Compound 939, N-(6-amino-5-methyl-3-pyridyl)-2-[(2R,3R,5R)-3-fluoro-2-(4-fluorophenyl)-5-methyl-1-piperidyl]-2-oxo-acetamide]: the IC50 is 50 to 500 nM in assay [1]; 50 to 500 nM in assay [2] (read-out: No Cofactor/rel IC50); 50 to 500 nM in assay [3]; greater than 1000 nM in assay [4] (setting [7]); 100 to 1000 nM in assay [5] (setting [8]); 1000 to 10000 nM in assay [6] (setting [12]). Besides, the MTAP intact/deleted ratio result in assay [5] (setting [9]) is on record as “A (an IC50 ratio greater than or equal to 10 fold)”.
On to `C[C@H]1C[C@H](C)[C@H](c2ccccc2)N(C(=O)C(=O)Nc2cncc(C(N)=O)c2)C1` (single isomer, unassigned) [Compound 267, 5-(2-(3,5-dimethyl-2-phenylpiperidin-1-yl)-2-oxoacetamido)nicotinamide], for which the IC50 in assay [1] was less than 50 nM; in assay [2] (read-out: No Cofactor/rel IC50), 50 to 500 nM; in assay [3], less than 50 nM; in assay [4] (setting [7]), greater than 1000 nM; in assay [5] (setting [13]) it was less than 100 nM; in assay [6] (setting [12]), 1000 to 10000 nM. For the same compound, the MTAP intact/deleted ratio result in assay [5] (setting [9]) is reported as “A (an IC50 ratio greater than or equal to 10 fold)”.
On to `Cc1cc(NC(=O)C(=O)N2C[C@H](C)CC[C@H]2c2cccc(Br)c2)cnc1N` (racemic) [Compound 600, N-(6-amino-5-methyl-3-pyridyl)-2-[(2S,5R)-2-(3-bromophenyl)-5-methyl-1-piperidyl]-2-oxo-acetamide], for which the IC50 in assay [1] was 50 to 500 nM; in assay [2] (read-out: No Cofactor/rel IC50) it was 50 to 500 nM; in assay [3] it was 50 to 500 nM; in assay [4] (setting [7]), 100 to 1000 nM; in assay [5] (setting [8]), less than 100 nM; in assay [6] (setting [10]) it was less than 1000 nM. Moreover, the MTAP intact/deleted ratio result in assay [5] (setting [9]) is “A (an IC50 ratio greater than or equal to 10 fold)”.
`Cc1nc2cc([C@H]3CC[C@H](C)CN3C(=O)C(=O)Nc3cncc(C(N)=O)c3)ccc2s1` (single isomer, unassigned) [Compound 702]: the IC50 in assay [1] is greater than 500 nM; in assay [2] (read-out: No Cofactor/rel IC50) it was greater than 500 nM; in assay [3], greater than 500 nM; in assay [4] (setting [7]), greater than 1000 nM; in assay [5] (setting [8]), greater than 1000 nM; in assay [6] (setting [10]), greater than 10000 nM. Moreover, the MTAP intact/deleted ratio result in assay [5] (setting [9]) was “B (an IC50 ratio greater than or equal to 3 fold but lower than 10 fold)”.
Regarding `COc1ncc(NC(=O)C(=O)N2C[C@H](C)CC[C@H]2c2cc3[nH]ncc3s2)cc1C(N)=O` (single isomer, unassigned) [Compound 952, 2-methoxy-5-(2-(5-methyl-2-(1H-thieno[3,2-c]pyrazol-5-yl)piperidin-1-yl)-2-oxoacetamido)nicotinamide], the IC50 in assay [1] is greater than 500 nM; in assay [2] (read-out: No Cofactor/rel IC50) it was greater than 500 nM; in assay [3], greater than 500 nM; in assay [4] (setting [7]), greater than 1000 nM; in assay [5] (setting [8]) it was greater than 1000 nM; in assay [6] (setting [12]) it was greater than 10000 nM. In addition, in assay [5] (setting [9]), the MTAP intact/deleted ratio entry is reported as “B (an IC50 ratio greater than or equal to 3 fold but lower than 10 fold)”.
As to `CCc1cc(NC(=O)C(=O)N2C[C@@H](C)CC[C@@H]2c2cccc(OCCN(C)C)c2)cnc1N` [Compound 1175, N-(6-amino-5-ethylpyridin-3-yl)-2-((2R,5S)-2-(3-(2-(dimethylamino)ethoxy)phenyl)-5-methylpiperidin-1-yl)-2-oxoacetamide], the IC50 in assay [1] was less than 50 nM; in assay [2] (read-out: No Cofactor/rel IC50) it was less than 50 nM; in assay [3] it was less than 50 nM; in assay [4] (setting [7]), 100 to 1000 nM; in assay [5] (setting [13]), less than 100 nM; in assay [6] (setting [12]), less than 1000 nM. Moreover, in assay [5] (setting [14]), the MTAP intact/deleted ratio entry is recorded as “A (an IC50 ratio greater than or equal to 10 fold)”.
Turning to `COc1ncc(NC(=O)C(=O)N2C[C@H](C)CC[C@H]2c2cc3cn[nH]c3s2)cc1C(N)=O` (single isomer, unassigned) [Compound 950, 2-methoxy-5-(2-(5-methyl-2-(1H-thieno[2,3-c]pyrazol-5-yl)piperidin-1-yl)-2-oxoacetamido)nicotinamide], the IC50 was greater than 500 nM in assay [1]; greater than 500 nM in assay [2] (read-out: No Cofactor/rel IC50); greater than 500 nM in assay [3]; greater than 1000 nM in assay [4] (setting [7]); greater than 1000 nM in assay [5] (setting [8]); greater than 10000 nM in assay [6] (setting [12]). Moreover, the MTAP intact/deleted ratio result in assay [5] (setting [9]) was “B (an IC50 ratio greater than or equal to 3 fold but lower than 10 fold)”.
As for `COc1cc(OC)cc([C@@H]2CC[C@@H](C)CN2C(=O)C(=O)Nc2cncc(C(N)=O)c2)c1` (racemic) [Compound 428, rac-5-{2-[(2R,5S)-2-(3,5-Dimethoxyphenyl)-5-methylpiperidin-1-yl]-2-oxoacetamido}pyridine-3-carboxamide], the IC50 in assay [1] is greater than 500 nM; in assay [2] (read-out: No Cofactor/rel IC50), greater than 500 nM; in assay [3], 50 to 500 nM; in assay [4] (setting [7]) it was greater than 1000 nM; in assay [5] (setting [13]) it was 100 to 1000 nM; in assay [6] (setting [12]), greater than 10000 nM. The MTAP intact/deleted ratio entry in assay [5] (setting [9]) is listed as “A (an IC50 ratio greater than or equal to 10 fold)”.
